In US11679108B2, “Aromatic heterocyclic compound, and pharmaceutical composition and use thereof” (GUANGZHOU HENOVCOM BIOSCIENCE CO., LTD., priority 2018, dated 2023):

target: T1, ATX in human plasma (Homo sapiens, UniProt Q13822); test: Analysis in vitro: detection of LPA in human plasma for screening activity (LPA 18:2 by LC/MS/MS); assay type: biochemical; conditions: incubated 2 hours at 37° C., LPA 18:2 detected by LC/MS/MS
T1 construct: blank plasma was derived from at least 6 individual people; from tissue; host or cells: human plasma (pooled from at least 6 individuals)
Description: Analysis In Vitro: Detection of LPA in Human Plasma for Screening Activity
Principle: LPC in plasma being used as a substrate, the produced LPA 18:2 (LPA 17:0 as an internal standard) is detected by LC/MS/MS quantitative analysis. At different concentrations of the compounds to be tested, the percentage of residual activity is obtained by the ratio of the production of LPA18:2 to that in the absence of the compounds to be tested, thereby calculating IC50 values.
Experiment procedures: blank plasma was derived from at least 6 individual people. The compounds to be tested were diluted from stock solution in 3-fold dilution gradient, to produce 8 concentrations of working solution (with zero) in series. 10 μL of the melting blank plasma samples were taken and iced methanol solution containing internal standard (LPA 17:0) was added to it, so that the mixture directedly performed protein precipitation, which served as a system control sample. 2 μL of the working solution in different concentration was taken and 198 μL of blank human plasma was added, which was incubated with a concentration of 0 to 10 μM. The samples were placed at an incubater containing 5% CO2 at 37° C., and incubated for 2 hours. When the incubation was completed, 10 μL of plasma sample was taken and appropriate volume of iced methanol solution containing internal standard (LPA 17:0) was added into it, so that the mixture directedly performed protein precipitation. The precipitation was centrifuged to take supernatant. LPA 18:2 was detected by LC/MS/MS and IC50 values were analyzed and calculated by software, seeing Table 2.

First: CCc1nc2sc(N3C[C@H](C)N(CC(=O)N4CC(O)C4)C[C@H]3C)nn2c1N(C)c1nc(-c2ccc(F)cc2)c(C#N)s1 (relative stereo) [Example 76, trans-2-{[6-ethyl-2-(4-(2-(3-hydroxyazetidin-1-yl)-2-oxoethyl)-2,5-dimethylpiperazin-1-yl)imidazo[2,1-b][1,3,4]thiadiazol-5-yl](methyl)amino}-4-(4-fluorophenyl)thiazole-5-carbonitrile]
Second: CCc1nc2sc(N3C[C@@H](C)N(CC(=O)N4CC(O)C4)[C@@H](C)C3)nn2c1N(C)c1nc(-c2ccc(F)cc2)c(C#N)s1 [Example 72, cis-2-{[6-ethyl-2-(4-(2-(3-hydroxyazetidin-1-yl)-2-oxoethyl)-3,5-dimethylpiperazin-1-yl)imidazo[2,1-b][1,3,4]thiadiazol-5-yl](methyl)amino}-4-(4-fluorophenyl)thiazole-5-carbonitrile]
The IC50 of the first is lower: 0.01 to 100 nM for the first, 100 to 500 nM for the second.

`CCc1nc2sc(N3CCC4(CN(CC(=O)N5CC(O)C5)C4)C3)nn2c1N(C)c1nc(-c2ccc(F)cc2)c(C#N)s1` [Example 54, 2-{[6-ethyl-2-(2-(2-(3-hydroxyazetidin-1-yl)-2-oxoethyl)-2,6-diazaspiro[3.4]octane-6-yl)imidazo[2,1-b][1,3,4]thiadiazol-5-yl](methyl)amino}-4-(4-fluorophenyl)thiazole-5-carbonitrile] and `CCc1nc2sc(N3CCN(CC(=O)N4CC(O)C4)C4(CC4)C3)nn2c1N(C)c1nc(-c2ccc(F)cc2)c(C#N)s1` [Example 71, 2-{[6-ethyl-2-(4-(2-(3-hydroxyazetidin-1-yl)-2-oxoethyl)-4,7-diazaspiro[2.5]octan-7-yl)imidazo[2,1-b][1,3,4]thiadiazol-5-yl](methyl)amino}-4-(4-fluorophenyl)thiazole-5-carbonitrile] fall in the same range of IC50: 100 to 500 nM for the first, 100 to 500 nM for the second.

Compared with `CCc1nc2sc(N3CCC(N(C)CC(=O)NCC(=O)O)C3)nn2c1N(C)c1nc(-c2ccc(F)cc2)c(C#N)s1` (stereo not shown) [Example 51], `CCc1nc2sc(N3CC(N(C)CC(=O)N4CC(O)C4)C3)nn2c1N(C)c1nc(-c2ccc(F)cc2)c(C#N)s1` [Example 63] is lower in IC50: 100 to 500 nM for the first, 0.01 to 100 nM for the second.

`CCc1nc2sc(N3C[C@@H]4C[C@H]3CN4CC(=O)N3CC(O)C3)nn2c1N(C)c1nc(-c2ccc(F)cc2)c(C#N)s1` [Example 58, 2-{[6-ethyl-2-((1S,4S)-5-(2-(3-hydroxyazetidin-1-yl)-2-oxoethyl)-2,5-diazabicyclo[2.2.1]heptan-2-yl)imidazo[2,1-b][1,3,4]thiadiazol-5-yl](methyl)amino}-4-(4-fluorophenyl)thiazole-5-carbonitrile] and `CCc1nc2sc(N3CC4CN(CC(=O)N5CC(O)C5)CC4C3)nn2c1N(C)c1nc(-c2ccc(F)cc2)c(C#N)s1` (stereo not shown) [Example 56, 2-{[6-ethyl-2-(5-(2-(3-hydroxyazetidin-1-yl)-2-oxoethyl)hexahydropyrrolo[3,4-c]pyrrol-2(1H)-yl)imidazo[2,1-b][1,3,4]thiadiazol-5-yl](methyl)amino}-4-(4-fluorophenyl)thiazole-5-carbonitrile] fall in the same range of IC50: 0.01 to 100 nM for the first, 0.01 to 100 nM for the second.

target: ATX (Homo sapiens, UniProt Q13822); test: Analysis in vitro: LPC was used as substrate for screening enzyme activity (Amplex Red fluorescence); assay type: biochemical; conditions: inhibitory activity against ATX, with LPC as substrate
Description: Analysis In Vitro: LPC was Used as Substrate for Screening Enzyme Activity
Principle: Lysophosphatidylcholine (LPC) as substrate is hydrolyzed by using the activity of lysoPLD enzyme, to produce lysophosphatidic acid (LPA) and choline, which is oxidized to produce H2O2 under the action of choline oxidase. In presence of horse radish peroxidase (HPR), Amplex Red reagent is reacted with H2O2 in a quantitative chemistry ratio of 1 to 1, to produce strong fluorescence products, which are detected by a fluorescent quantitative test.
Experimental procedures: the compounds to be tested were dissolved in DMSO, to prepare 10 mM of stock solution, which was diluted in a gradient concentration of 3 times with DMSO from 10 mM, to generate 10 concentration gradients. The reaction buffer solution was used for preparing a mixed solution 1 of 2 ng/μl ATX, 2 U/ml HRP and 0.2 U/ml choline oxidase in a final concentration. 20 μl of the above mixed solution 1 was added to each hole of an experiment board, […]. The compounds diluted with DMSO were transferred into an experiment board with Echo550. The reaction buffer solution was used for preparing a mixed solution 2 of […] LPC and 400 μM Amplex Red in a final concentration. 20 μl of the above mixed solution 2 was added to each hole of the experiment board. After addition, the experiment board was shook for 30 seconds on a shaker, and incubated for 30 minutes. Envision was used to read the fluorescence signals with an exciting light at 530 nm and emitted light at 590 nm. Inhibition ratio of the compounds to enzyme reaction was calculated according to the ratio of fluorescence, and IC50 of the compounds was analyzed and calculated by software, seeing Table 1.

First: CCc1nc2sc(N3CC[C@@H](N(CC)CC(=O)N4CC(O)C4)C3)nn2c1N(C)c1nc(-c2ccc(F)cc2)c(C#N)s1 [Example 89, (R)-2-{[6-ethyl-2-(3-(ethyl(2-(3-hydroxyazetidin-1-yl)-2-oxoethyl)amino)pyrrolidin-1-yl)imidazo[2,1-b][1,3,4]thiadiazol-5-yl](methyl)amino}-4-(4-fluorophenyl)thiazole-5-carbonitrile]
Second: CCc1nc2sc(N3CCC(N(C)C(=O)N4CC(O)C4)C3)nn2c1N(C)c1nc(-c2ccc(F)cc2)c(C#N)s1 (stereo not shown) [Example 30, N-{1-[5-((5-cyano-4-(4-fluorophenyl)thiazol-2-yl)(methyl)amino)-6-ethylimidazo[2,1-b][1,3,4]thiadiazol-2-yl}pyrrolidin-3-yl}-3-hydroxy-N-methylazetidine-1-carboxamide]
The IC50 of the first is higher: 100 to 500 nM for the first, 0.01 to 100 nM for the second.

First: CCc1nc2sc(N3CCC(N(C)C(=O)N4CCOCC4)C3)nn2c1N(C)c1nc(-c2ccc(F)cc2)c(C#N)s1 (stereo not shown) [Example 32, N-{1-[5-((5-cyano-4-(4-fluorophenyl)thiazol-2-yl)(methyl)amino)-6-ethylimidazo[2,1-b][1,3,4]thiadiazol-2-yl}pyrrolidin-3-yl}-N-methylmorpholine-4-carboxamide]
Second: CCc1nc2sc(N3CCC(N(C)CC(=O)N4CCOCC4)C3)nn2c1N(C)c1nc(-c2ccc(F)cc2)c(C#N)s1 (stereo not shown) [Example 34, 2-{[6-ethyl-2-(3-(methyl(2-mophlin-2-oxoethyl)amino)pyrrolidin-1-yl)imidazo[2,1-b][1,3,4]thiadiazol-5-yl](methyl)amino}-4-(4-fluorophenyl)thiazole-5-carbonitrile]
The IC50 of the first is higher: 100 to 500 nM for the first, 0.01 to 100 nM for the second. The second is the more potent here.

Compared with `CCc1nc2sc(C3CCN(C(N)=O)CC3)nn2c1N(C)c1nc(-c2ccc(F)cc2)c(C#N)s1` [Example 18, 4-{5-[(5-cyano-4-(4-fluorophenyl)thiazol-2-yl](methyl)amino]-6-ethylimidazo[2,1-b][1,3,4]thiadiazol-2-yl}piperidine-1-carboxamide], `CCc1nc2sc(N3CCC(N(C)C(=O)NC)C3)nn2c1N(C)c1nc(-c2ccc(F)cc2)c(C#N)s1` (stereo not shown) [Example 29, 1-{1-[5-((5-cyano-4-(4-fluorophenyl)thiazol-2-yl)(methyl)amino)-6-ethylimidazo[2,1-b][1,3,4]thiadiazol-2-yl}pyrrolidin-3-yl}-1,3-dimethylurea] is lower in IC50: 100 to 500 nM for the first, 0.01 to 100 nM for the second.

`CCc1nc2sc(N3CC4(CN(CC(=O)N5CC(O)C5)C4)C3)nn2c1N(C)c1nc(-c2ccc(F)cc2)c(C#N)s1` [Example 6] and `CCc1nc2sc(N3CCN(CC(=O)N4CC(O)C4)[C@@H](C(=O)OC)C3)nn2c1N(C)c1nc(-c2ccc(F)cc2)c(C#N)s1` [Example 84, methyl (R)-4-{5-[(5-cyano-4-(4-fluorophenyl)thiazol-2-yl)(methyl)amino]-6-ethylimidazo[2,1-b][1,3,4]thiadiazol-2-yl}-1-(2-(3-hydroxyazetidin-1-yl)-2-oxoethyl)piperazine-2-carboxylate] fall in the same range of IC50: 100 to 500 nM for the first, 100 to 500 nM for the second.

`CCc1nc2sc(N3CC[C@@H](N(C)CC(=O)N4CC(C(=O)OC)C4)C3)nn2c1N(C)c1nc(-c2ccc(F)cc2)c(C#N)s1` [Example 42, methyl (R)-1-{2-[(1-(5-((5-cyano-4-(4-fluorophenyl)thiazol-2-yl)(methyl)amino)-6-ethylimidazo[2,1-b][1,3,4]thiadiazol-2-yl)pyrrolidin-3-yl)(methyl)amino]acetyl}azetidine-3-carboxylate] and `CCc1nc2sc(N3CCC(N(C)C(=O)N(C)C)C3)nn2c1N(C)c1nc(-c2ccc(F)cc2)c(C#N)s1` (stereo not shown) [Example 31, 1-{1-[5-((5-cyano-4-(4-fluorophenyl)thiazol-2-yl)(methyl)amino)-6-ethylimidazo[2,1-b][1,3,4]thiadiazol-2-yl]pyrrolidin-3-yl}-1,3,3-trimethylurea] fall in the same range of IC50: 100 to 500 nM for the first, 100 to 500 nM for the second.

With `CCc1nc2sc(N3CCC(N(C)C(=O)NC(C)(C)C)C3)nn2c1N(C)c1nc(-c2ccc(F)cc2)c(C#N)s1` (stereo not shown) [Example 25, 3-tertbutyl-1-{1-[5-((5-cyano-4-(4-fluorophenyl)thiazol-2-yl)(methyl)amino)-6-ethylimidazo[2,1-b][1,3,4]thiadiazol-2-yl]pyrrolidin-3-yl}-1-methylurea] the IC50 was 100 to 500 nM.
